Data on five compounds can be found in patent publication US20150064111A1, “NOVEL TARGETING AGENTS FOR DIAGNOSTIC AND THERAPEUTIC INDICATIONS” (APOSENSE LTD., priority 2012, published 2015).

Data set [1] relates to CD95-treated Jurkat cells. The data set can be described thus: In-vitro screening: uptake of tritiated compounds into apoptotic Jurkat cells. Format: cell-based. The settings on record: tritiated compound, 30 minutes, 37° C., beta-counter; control untreated uptake set as 1. The method, then: Uptake was measured using beta counter. zVAD treated cells reversed the phenotype decreasing uptake to control values (set as 1) in all tested candidates. Shown are means±SD of three independent experiments performed in triplicates.
For in-vitro screening of the compounds of the invention, apoptosis-induction model in hematopoietic derived cancer cell line, Jurkat was used.
Jurkat cells were cultured in RPMI supplemented with 10% fetal bovine serum, 4 mM L-glutamine, 100 U/ml penicillin and 100 n/ml streptomycin in a humidified incubator at 37° C., 5% CO2. Cells were counted and re-suspended in hepes buffer saline (HBS).
Apoptosis induction: 10^7 cells/ml were incubated for two hours with 0.1 n/ml of anti-Fas (CD95) antibody. For apoptosis inhibition (specific control), induced and control cells were incubated with 50 μM of the specific caspase inhibitor, Zvad. 2 μl Ci of the tritiated compounds or ML-10 as reference, were added to the cells for 30 minutes. All incubations were performed at 37° C. After incubation with the tritiated compounds, cells were washed twice in HBS, transferred to scintillation liquid and radioactivity was monitored using beta-counter. The percentage of uptake was calculated using the standard DPM readings. […]

Data set [2] can be described thus: Pharmacokinetic evaluation of tritiated candidates in naive and chemotherapy treated mice. The settings on record: mouse, in vivo. From the text:
(§1) In order to determine the pharmacokinetics properties of APO-698, its unlabeled analog, APO-697 was used. Table-1 summarizes the pharmacokinetic study performed in CD1 mice for the two unlabeled (cold) analogs, ML-10 and APO-697.

A short description of data set [3]: Pharmacokinetic study of unlabeled (cold) analogs in CD1 mice. Format: in vivo. The settings on record: for AUC(0-inf) / half-life / clearance / Vd: mouse, in vivo; for clearance: read-out: Total clearance (converted); for Vd: read-out: Vss; for Total clearance, percentage in brackets / Vss, percentage in brackets: reference of the percentage not explained.
Source text: as §1

Data set [4] is described as follows: Blood partitioning (red blood cells/plasma). The data set is classed as in vitro ADME. The settings on record: mouse blood.
Source text: as §1

The test system of data set [5] is human colorectal cancer cells HCT-116 xenografts. The data set can be described thus: In-vivo screening: tumor/blood uptake ratio in HCT-116 xenografts. Details: species or system Athymic nude mice. The settings on record: intravenous tritiated compound, HCT-116 xenograft, FIG. 2 (one and a half hours before samples collection). The method, then: Athymic nude mice were inoculated with HCT-116 human colorectal cancer cells. Mice were subjected to intravenous injection of tritiated ML-10 and APO-650 one and a half hours before samples collection. Blood samples were taken before sacrificing the animals. Blood and tumor samples radioactivity was measured in a beta-counter.
In order to assess the in-vivo accumulation of ML-10 and compounds of the invention, the uptake into human colorectal cancer cells HCT-116 xenografts was monitored. Athymic nude mice were subcutaneously inoculated with […] HCT-116 cells. After the formation of tumors, ML-10 and APO-650 were intravenously administrated to the mice, 30 and 90 minutes before scarification (n≧8). Peripheral blood samples were collected prior to animals' scarification. Tumors were dissected, homogenized and all samples were calibrated in scintillation fluid before radioactivity was measured in a beta-counter. To inspect signal to noise ratio, the ratio of uptake into the tumor versus blood was calculated.

For the compound `O=C(O)c1ccc(CCC[18F])cc1C(=O)O` [APO-630, 4-(3-^18fluoropropyl)phthalic acid], the “fold increase uptake of CD95-treated cells (uptake of the tracer into the apoptotic cells)” value in data set [1] was “high uptake”. The compound further came in with a half-life in data set [2] (t1/2) of 10 min.

As for `CC(CCCCCF)(C(=O)O)C(=O)O` [ML-10, (5-fluoropentyl)(methyl)propanedioic acid, reference compound], in data set [3] (unlabeled compound), the AUC(0-inf) (commonly the area under the concentration-time curve extrapolated to infinity) worked out at 32.6 ng·h/mL; the half-life stood at 11.2 min; the clearance (in general, the volume of plasma or blood freed of the substance per unit of time) is 10.2 mL/min/kg; the Vd amounted to 0.152 L/kg. For the same compound, in data set [3], the “Total clearance, percentage in brackets” value is “(11.4%)” and the “Vss, percentage in brackets” value is “(21.0%)”. Further, the half-life in data set [2] (Naive mice, tritiated, read-out: t1/2) amounted to 10 min. In addition, the KRBC/PL in data set [4] came out at 0.01.

On to `COc1cc2c(c(OC)c1OC)-c1ccc(OC)c(=O)cc1[C@@H](NC(=O)CCCCCC(C)(C(=O)O)C(=O)O)CC2` [APO-697, 2-methyl-2-(5-{[(10S)-3,4,5,14-tetramethoxy-13-oxotricyclo[9.5.0.0{2,7}]hexadeca-1(16),2,4,6,11,14-hexaen-10-yl]carbamoyl}pentyl)propanedioic acid], for which, in data set [3] (unlabeled compound), the AUC(0-inf) was found to be 5.16 ng·h/mL, the half-life is 7.92 min, the clearance is 64.7 mL/min/kg and the Vd worked out at 0.435 L/kg. Moreover, in data set [3] (unlabeled compound), the Total clearance entry is recorded as “higher”, the Vss result was “higher volume of distribution” and the t1/2 entry is listed as “shorter t1/2”. In data set [3], the “Total clearance, percentage in brackets” value is listed as “(71.9%)” and the “Vss, percentage in brackets” value was “(60.0%)”. Moreover, the KRBC/PL in data set [4] amounted to 0.07.

In turn, `CN(CCCCC(C)(C(=O)O)C(=O)O)c1ncc([N+](=O)[O-])s1` [APO-650, 2-methyl-2-{4-[(5-nitro-1,3-thiazol-2-yl)tritritiummethylamino]butyl}propanedioic acid] had a half-life in data set [2] (t1/2) of 8 min. Further, the tumor/blood ratio result in data set [5] is “six-fold”.

Regarding `CC(CCCCC[18F])(c1nnn[nH]1)c1nnn[nH]1` [APO-600, 5,5′(7-^18fluoroheptane-2,2-diyl)bis(1H-tetrazole)], the “fold increase uptake of CD95-treated cells (uptake of the tracer into the apoptotic cells)” value in data set [1] is on record as “high uptake”.
